Test results published in the supplement of paper PMC10883282.
Counter-ions that a name gives are not always drawn. ± gives the standard deviation of the averaged measurements.

System: RD
Assay: relative viability vs DMSO control (72 h) (fraction); higher = more viable cells
Method in brief: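 Serially diluted compound, 2.5 µl from source plates spanning 10 mM to 0.0002 mM, was added 24 h after sarcoma cell lines were seeded in 384-well plates at densities targeting 80–90% confluence. Plates then sat 72 h at 37 °C, 5% CO2, with 0.1% DMSO vehicle and a 5 µM positive control. Relative viability came from ATPLite as percent growth, averaged over up to triplicate wells, and was rescaled with 1 as full and 0 as none.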

Row | SMILES | relative viability (0.00017 µM) | relative viability (0.00051 µM) | relative viability (0.00152 µM) | relative viability (0.00457 µM) | relative viability (0.01372 µM) | relative viability (0.04115 µM) | relative viability (0.1235 µM) | relative viability (0.3704 µM) | relative viability (1.111 µM) | relative viability (3.333 µM) | relative viability (10 µM)
1 | O=C(Nc1cnn2ccc(N3CCC[C@@H]3c3cc(F)ccc3F)nc12)N1CC[C@H](O)C1 [Larotrectinib] | 1.07 ± 0.035 | 1.092 ± 0.0046 | 1.09 ± 0.059 | 1.1 ± 0.05 | 1.11 ± 0.042 | 1.1 ± 0.11 | 1.13 ± 0.051 | 1.12 ± 0.073 | 1.13 ± 0.037 | 1.1 ± 0.068 | 1.09 ± 0.12
2 | C[C@@H]1COCCN1c1cc(-c2ccnn2C)c2ccnc(-c3ccn[nH]3)c2n1 | 1.08 ± 0.059 | 1.09 ± 0.027 | 1.09 ± 0.083 | 1.12 ± 0.065 | 1.1 ± 0.037 | 1.08 ± 0.046 | 0.93 ± 0.03 | 0.627 ± 0.025 | 0.378 ± 0.018 | 0.23 ± 0.017 | 0.188 ± 0.011
3 | CC(C)N1CCN(Cc2cnc(-c3cc(-c4cccc5[nH]ccc45)cc4[nH]ncc34)o2)CC1 [Nemiralisib] | 0.931 ± 0.024 | 0.951 ± 0.017 | 0.916 ± 0.051 | 0.955 ± 0.025 | 0.941 ± 0.025 | 0.937 ± 0.011 | 0.964 ± 0.016 | 0.902 ± 0.028 | 0.83 ± 0.01 | 0.692 ± 0.053 | 0.128 ± 0.083
4 | COc1cccc2c1C(=O)c1c(O)c3c(c(O)c1C2=O)C[C@@](O)(C(=O)CO)C[C@@H]3O[C@H]1C[C@H](N)[C@H](O)[C@H](C)O1 [Doxorubicin Hydrochloride] | 1.12 ± 0.074 | 1.09 ± 0.068 | 1.12 ± 0.069 | 1.08 ± 0.072 | 1.1 ± 0.028 | 0.892 ± 0.011 | 0.556 ± 0.019 | 0.214 ± 0.015 | 0.0954 ± 0.008 | 0.0741 ± 0.0052 | 0.0196 ± 0.00075
5 | Nc1cc(C(F)(F)F)c(-c2cc(N3CCOCC3)nc(N3CCOCC3)n2)cn1 [Buparlisib] | 1.09 ± 0.015 | 1.06 ± 0.025 | 1.09 ± 0.055 | 1.08 ± 0.05 | 1.07 ± 0.028 | 1.09 ± 0.045 | 1 ± 0.046 | 0.868 ± 0.045 | 0.428 ± 0.042 | 0.133 ± 0.011 | 0.126 ± 0.015
6 | Cc1cc(Nc2ncnc3ccc(NC4=NC(C)(C)CO4)cc23)ccc1Oc1ccn2ncnc2c1 [Tucatinib] | 1.08 ± 0.071 | 1.09 ± 0.076 | 1.11 ± 0.04 | 1.08 ± 0.04 | 1.1 ± 0.026 | 1.1 ± 0.017 | 1.07 ± 0.067 | 1.11 ± 0.073 | 1.14 ± 0.081 | 1.18 ± 0.063 | 1.15 ± 0.061
7 | Cc1nc(-c2cn3c(n2)-c2ccc(-c4cnn(C(C)(C)C(N)=O)c4)cc2OCC3)n(C(C)C)n1 [Taselisib] | 1.11 ± 0.018 | 1.08 ± 0.041 | 1.07 ± 0.037 | 1.06 ± 0.036 | 1.03 ± 0.028 | 0.888 ± 0.027 | 0.687 ± 0.021 | 0.524 ± 0.017 | 0.444 ± 0.027 | 0.426 ± 0.0056 | 0.36 ± 0.026
8 | CN1CCC(COc2cnc(-c3cccc(Cn4nc(-c5cccc(C#N)c5)ccc4=O)c3)nc2)CC1 [Tepotinib] | 1.03 ± 0.049 | 1.1 ± 0.084 | 1.09 ± 0.039 | 1.1 ± 0.055 | 1.12 ± 0.031 | 1.13 ± 0.049 | 1.12 ± 0.093 | 1.14 ± 0.029 | 1.1 ± 0.065 | 1.11 ± 0.031 | 0.941 ± 0.07
9 | CNC(=O)c1cc(Oc2ccc(NC(=O)Nc3ccc(Cl)c(C(F)(F)F)c3)c(F)c2)ccn1 [Regorafenib] | 1.06 ± 0.017 | 1.11 ± 0.028 | 1.13 ± 0.052 | 1.14 ± 0.089 | 1.13 ± 0.075 | 1.14 ± 0.063 | 1.12 ± 0.04 | 1.01 ± 0.058 | 0.877 ± 0.069 | 0.787 ± 0.05 | 0.558 ± 0.048
10 | CCCS(=O)(=O)Nc1ccc(F)c(C(=O)c2c[nH]c3ncc(-c4ccc(Cl)cc4)cc23)c1F [Vemurafenib] | 1.14 ± 0.071 | 1.12 ± 0.08 | 1.14 ± 0.073 | 1.13 ± 0.073 | 1.12 ± 0.059 | 1.13 ± 0.061 | 1.11 ± 0.053 | 1.12 ± 0.053 | 1.14 ± 0.07 | 1.11 ± 0.036 | 0.785 ± 0.079
11 | COc1c(OCCCN2CCOCC2)ccc2c1N=C(NC(=O)c1cnc(N)nc1)N1CCN=C21 [Copanlisib] | 1.07 ± 0.038 | 1.06 ± 0.032 | 1.07 ± 0.082 | 0.77 ± 0.053 | 0.741 ± 0.098 | 0.61 ± 0.01 | 0.438 ± 0.019 | 0.328 ± 0.011 | 0.268 ± 0.013 | 0.225 ± 0.014 | 0.184 ± 0.015
12 | CC(=O)Nc1cccc(-n2c(=O)n(C3CC3)c(=O)c3c(Nc4ccc(I)cc4F)n(C)c(=O)c(C)c32)c1 [Trametinib] | 1.08 ± 0.027 | 1.07 ± 0.064 | 0.971 ± 0.099 | 0.838 ± 0.044 | 0.669 ± 0.07 | 0.608 ± 0.051 | 0.584 ± 0.032 | 0.558 ± 0.038 | 0.556 ± 0.03 | 0.523 ± 0.04 | 0.477 ± 0.022
13 | COCc1c(-c2cc3cc(C)cc(OC)c3s2)c2c(N)ncnn2c1CN1CCNC(=O)C1 [Rogaratinib] | 1.03 ± 0.022 | 1.09 ± 0.017 | 1.08 ± 0.024 | 1.11 ± 0.037 | 1.09 ± 0.033 | 1.12 ± 0.016 | 1.1 ± 0.057 | 1.08 ± 0.03 | 1.07 ± 0.047 | 0.923 ± 0.042 | 0.569 ± 0.015
14 | COc1cc2/c(=N/c3ccc(Br)cc3F)nc[nH]c2cc1OCC1CCN(C)CC1 [Vandetanib] | 1.1 ± 0.074 | 1.1 ± 0.066 | 1.09 ± 0.057 | 1.11 ± 0.081 | 1.1 ± 0.055 | 1.11 ± 0.088 | 1.04 ± 0.083 | 1.01 ± 0.061 | 0.96 ± 0.037 | 0.139 ± 0.017 | 0.0241 ± 0.0083
15 | CNC(=O)c1ccc(-c2cnc3ncc(Cc4ccc5ncccc5c4)n3n2)cc1F [Capmatinib] | 1.11 ± 0.025 | 1.1 ± 0.053 | 1.13 ± 0.037 | 1.15 ± 0.065 | 1.12 ± 0.028 | 1.12 ± 0.042 | 1.13 ± 0.077 | 1.14 ± 0.053 | 1.15 ± 0.072 | 1.13 ± 0.12 | 1.1 ± 0.1
16 | CCN1CCN(Cc2ccc(Nc3ncc(F)c(-c4cc(F)c5nc(C)n(C(C)C)c5c4)n3)nc2)CC1 [Abemaciclib] | 1.12 ± 0.06 | 1.14 ± 0.056 | 1.09 ± 0.05 | 1.11 ± 0.054 | 1.1 ± 0.059 | 1.07 ± 0.081 | 1.06 ± 0.078 | 1.07 ± 0.036 | 1.1 ± 0.072 | 1.04 ± 0.049 | 0.863 ± 0.039
17 | C=CC(=O)N1CCC[C@@H](n2nc(-c3ccc(Oc4ccccc4)cc3)c3c(N)ncnc32)C1 [Ibrutinib] | 1.08 ± 0.04 | 1.11 ± 0.053 | 1.09 ± 0.032 | 1.13 ± 0.07 | 1.14 ± 0.063 | 1.12 ± 0.054 | 1.15 ± 0.062 | 1.15 ± 0.079 | 1.14 ± 0.083 | 1.13 ± 0.037 | 0.984 ± 0.058
18 | Cn1cnc2c(F)c(Nc3ccc(Br)cc3F)c(C(=O)NOCCO)cc21 [Binimetinib] | 1.01 ± 0.049 | 1 ± 0.04 | 0.978 ± 0.037 | 0.89 ± 0.054 | 0.798 ± 0.05 | 0.746 ± 0.028 | 0.677 ± 0.016 | 0.627 ± 0.036 | 0.588 ± 0.015 | 0.534 ± 0.035 | 0.507 ± 0.012
